Legend:
Format in all cases: cell-based
[1] = biological target: T1, Mitogen-activated protein kinase kinase kinase 2 (Homo sapiens) (UniProt Q9Y2U5); test: Inhibition of MAP3K2 Lys1 labeling site harbouring ELAVKQVQFDPDSPETSKEVNALECEIQLLK in human A-375 cells at 5 uM by KiNativ Profiling analysis relative to control
T1 sequence (whole entry): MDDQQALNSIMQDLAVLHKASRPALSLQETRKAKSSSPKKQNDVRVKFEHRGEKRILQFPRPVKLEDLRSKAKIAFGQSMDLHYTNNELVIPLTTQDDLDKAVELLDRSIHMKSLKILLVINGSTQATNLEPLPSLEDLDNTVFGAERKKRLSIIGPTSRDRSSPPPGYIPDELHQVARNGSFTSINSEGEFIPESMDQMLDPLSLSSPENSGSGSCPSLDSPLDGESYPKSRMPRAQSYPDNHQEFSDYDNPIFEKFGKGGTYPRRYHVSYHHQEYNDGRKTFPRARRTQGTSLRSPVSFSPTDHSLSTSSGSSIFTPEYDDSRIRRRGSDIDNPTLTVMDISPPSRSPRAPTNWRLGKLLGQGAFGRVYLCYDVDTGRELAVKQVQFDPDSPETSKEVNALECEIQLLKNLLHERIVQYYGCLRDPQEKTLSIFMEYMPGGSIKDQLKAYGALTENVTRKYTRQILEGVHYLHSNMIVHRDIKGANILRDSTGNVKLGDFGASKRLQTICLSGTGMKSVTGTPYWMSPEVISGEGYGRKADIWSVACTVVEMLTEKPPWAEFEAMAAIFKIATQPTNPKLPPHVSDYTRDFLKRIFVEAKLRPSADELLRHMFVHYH

[2] = biological target: T2, Serine/threonine-protein kinase Nek9 (Homo sapiens) (UniProt Q8TD19); test: Inhibition of NEK9 Lys1 labeling site harbouring TEDDSLVVWKEVDLTR in human A-375 cells at 5 uM by KiNativ Profiling analysis relative to control
T2 sequence (whole entry): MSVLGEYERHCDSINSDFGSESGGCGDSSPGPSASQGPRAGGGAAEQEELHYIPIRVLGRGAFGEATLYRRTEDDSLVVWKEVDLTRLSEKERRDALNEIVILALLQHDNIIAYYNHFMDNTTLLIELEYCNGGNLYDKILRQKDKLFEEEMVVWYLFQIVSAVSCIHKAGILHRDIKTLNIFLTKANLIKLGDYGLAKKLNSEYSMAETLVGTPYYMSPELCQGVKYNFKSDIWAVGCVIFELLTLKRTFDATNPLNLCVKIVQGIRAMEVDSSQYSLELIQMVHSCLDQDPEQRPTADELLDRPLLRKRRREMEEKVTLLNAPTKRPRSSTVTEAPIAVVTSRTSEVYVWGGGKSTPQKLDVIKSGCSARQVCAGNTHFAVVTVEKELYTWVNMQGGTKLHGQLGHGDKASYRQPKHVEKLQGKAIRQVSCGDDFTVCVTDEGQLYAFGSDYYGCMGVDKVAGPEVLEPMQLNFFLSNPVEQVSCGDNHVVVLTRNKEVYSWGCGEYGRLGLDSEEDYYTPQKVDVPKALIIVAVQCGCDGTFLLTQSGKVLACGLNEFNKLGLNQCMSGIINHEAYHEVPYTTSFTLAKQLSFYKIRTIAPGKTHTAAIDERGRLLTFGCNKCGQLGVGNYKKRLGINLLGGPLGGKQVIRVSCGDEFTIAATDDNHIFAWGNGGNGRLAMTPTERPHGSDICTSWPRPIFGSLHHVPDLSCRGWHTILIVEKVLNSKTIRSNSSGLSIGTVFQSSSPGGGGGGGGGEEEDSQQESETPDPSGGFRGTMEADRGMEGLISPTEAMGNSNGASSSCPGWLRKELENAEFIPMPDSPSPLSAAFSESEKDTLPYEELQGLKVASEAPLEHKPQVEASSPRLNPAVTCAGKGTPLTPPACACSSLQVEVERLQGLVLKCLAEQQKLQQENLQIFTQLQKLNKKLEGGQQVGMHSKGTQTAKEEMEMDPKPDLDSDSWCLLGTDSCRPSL

[3] = biological target: T3, Mitogen-activated protein kinase 13 (Homo sapiens) (UniProt O15264); test: Inhibition of p38 delta Lys2 labeling site in human A-375 cells at 5 uM by KiNativ Profiling analysis relative to control
T3 sequence (whole entry): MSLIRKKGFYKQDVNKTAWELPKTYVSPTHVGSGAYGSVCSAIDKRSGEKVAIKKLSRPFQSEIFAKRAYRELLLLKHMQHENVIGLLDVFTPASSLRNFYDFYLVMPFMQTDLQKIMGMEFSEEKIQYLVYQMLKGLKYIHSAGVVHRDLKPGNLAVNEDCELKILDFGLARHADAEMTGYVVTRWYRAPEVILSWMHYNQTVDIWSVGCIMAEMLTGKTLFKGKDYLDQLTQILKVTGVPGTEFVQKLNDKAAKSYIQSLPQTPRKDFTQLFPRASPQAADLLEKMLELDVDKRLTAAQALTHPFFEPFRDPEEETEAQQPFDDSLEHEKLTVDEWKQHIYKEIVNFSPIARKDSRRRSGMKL

[4] = biological target: Interferon-induced, double-stranded RNA-activated protein kinase (Homo sapiens) (UniProt P19525); test: Inhibition of PKR Lys2 labeling site in human A-375 cells at 0.5 uM by KiNativ Profiling analysis relative to control
Sequence of Interferon-induced, double-stranded RNA-activated protein kinase (Homo sapiens) (P19525 whole entry): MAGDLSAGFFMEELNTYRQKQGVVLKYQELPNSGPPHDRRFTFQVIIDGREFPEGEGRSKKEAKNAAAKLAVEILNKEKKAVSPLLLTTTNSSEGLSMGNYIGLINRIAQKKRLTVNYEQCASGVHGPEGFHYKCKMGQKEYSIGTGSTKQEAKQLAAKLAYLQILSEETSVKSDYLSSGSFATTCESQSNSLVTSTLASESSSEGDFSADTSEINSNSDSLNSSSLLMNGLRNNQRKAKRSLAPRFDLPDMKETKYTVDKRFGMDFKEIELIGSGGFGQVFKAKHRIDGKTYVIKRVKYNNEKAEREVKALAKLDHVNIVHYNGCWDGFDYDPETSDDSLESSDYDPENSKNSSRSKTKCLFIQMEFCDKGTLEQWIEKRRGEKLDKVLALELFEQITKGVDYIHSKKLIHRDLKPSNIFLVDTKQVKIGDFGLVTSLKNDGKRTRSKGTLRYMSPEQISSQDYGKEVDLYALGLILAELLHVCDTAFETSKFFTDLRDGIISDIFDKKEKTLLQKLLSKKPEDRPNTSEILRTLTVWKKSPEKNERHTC

[5] = biological target: Serine/threonine-protein kinase Chk2 (Homo sapiens) (UniProt O96017); test: Inhibition of CHK2 Lys1 labeling site in human A-375 cells at 0.05 uM by KiNativ Profiling analysis relative to control
Sequence of Serine/threonine-protein kinase Chk2 (Homo sapiens) (O96017 whole entry): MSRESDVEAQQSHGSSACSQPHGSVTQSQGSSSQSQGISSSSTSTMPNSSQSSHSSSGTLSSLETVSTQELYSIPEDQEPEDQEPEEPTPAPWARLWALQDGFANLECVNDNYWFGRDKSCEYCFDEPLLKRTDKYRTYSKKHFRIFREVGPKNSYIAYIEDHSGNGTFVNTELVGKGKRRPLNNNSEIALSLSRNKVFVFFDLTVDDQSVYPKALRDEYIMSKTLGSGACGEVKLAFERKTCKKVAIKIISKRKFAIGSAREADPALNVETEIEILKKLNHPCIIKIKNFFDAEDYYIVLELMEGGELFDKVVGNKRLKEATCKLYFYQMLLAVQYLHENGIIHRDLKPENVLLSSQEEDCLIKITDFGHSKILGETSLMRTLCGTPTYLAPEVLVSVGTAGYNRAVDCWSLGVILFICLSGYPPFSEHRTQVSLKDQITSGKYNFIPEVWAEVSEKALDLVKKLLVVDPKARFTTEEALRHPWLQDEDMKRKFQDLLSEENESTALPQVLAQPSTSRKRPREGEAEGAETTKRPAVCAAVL

[6] = biological target: Interleukin-1 receptor-associated kinase 1 (Homo sapiens) (UniProt P51617); test: Inhibition of IRAK1 Lys2 labeling site in human A-375 cells at 0.05 uM by KiNativ Profiling analysis relative to control
Sequence of Interleukin-1 receptor-associated kinase 1 (Homo sapiens) (P51617 whole entry, looked up): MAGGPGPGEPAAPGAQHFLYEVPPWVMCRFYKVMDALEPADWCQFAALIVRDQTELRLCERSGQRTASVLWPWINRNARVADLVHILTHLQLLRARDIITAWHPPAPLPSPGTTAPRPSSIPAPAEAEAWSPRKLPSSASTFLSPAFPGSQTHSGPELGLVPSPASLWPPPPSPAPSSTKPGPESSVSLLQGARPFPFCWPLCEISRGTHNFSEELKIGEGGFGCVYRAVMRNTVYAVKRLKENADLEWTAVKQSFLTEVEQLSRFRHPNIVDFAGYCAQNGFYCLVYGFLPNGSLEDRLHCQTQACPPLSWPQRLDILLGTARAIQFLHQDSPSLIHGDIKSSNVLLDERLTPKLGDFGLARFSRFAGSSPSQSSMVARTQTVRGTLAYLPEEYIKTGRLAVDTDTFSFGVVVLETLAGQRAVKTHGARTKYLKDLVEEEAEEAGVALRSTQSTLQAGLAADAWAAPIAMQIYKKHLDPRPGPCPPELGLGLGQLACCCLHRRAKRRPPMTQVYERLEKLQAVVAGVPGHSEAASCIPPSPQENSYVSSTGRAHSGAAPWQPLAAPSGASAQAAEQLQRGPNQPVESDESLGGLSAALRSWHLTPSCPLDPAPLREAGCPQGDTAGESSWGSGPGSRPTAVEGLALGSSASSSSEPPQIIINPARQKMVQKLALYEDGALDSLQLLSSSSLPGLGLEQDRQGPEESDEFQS

[7] = biological target: Serine/threonine-protein kinase 25 (Homo sapiens) (UniProt O00506); test: Inhibition of YSK1 Lys2 labeling site in human A-375 cells at 0.05 uM by KiNativ Profiling analysis relative to control
Sequence of Serine/threonine-protein kinase 25 (Homo sapiens) (O00506 whole entry, looked up): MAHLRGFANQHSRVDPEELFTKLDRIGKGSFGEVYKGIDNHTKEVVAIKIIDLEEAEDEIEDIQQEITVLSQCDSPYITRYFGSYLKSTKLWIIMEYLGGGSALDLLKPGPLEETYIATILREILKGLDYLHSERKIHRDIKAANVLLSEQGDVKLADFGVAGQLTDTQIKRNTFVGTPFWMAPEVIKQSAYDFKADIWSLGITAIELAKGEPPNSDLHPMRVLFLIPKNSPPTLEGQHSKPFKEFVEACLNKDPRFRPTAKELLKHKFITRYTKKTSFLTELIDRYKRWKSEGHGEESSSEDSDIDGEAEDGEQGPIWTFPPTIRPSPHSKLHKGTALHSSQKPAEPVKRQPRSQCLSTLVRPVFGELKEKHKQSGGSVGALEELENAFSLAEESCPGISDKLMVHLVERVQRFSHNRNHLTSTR

For CCN1CCN(Cc2ccc(NC(=O)c3ccc(C)c(Oc4ccnc5[nH]ccc45)c3)cc2C(F)(F)F)CC1, the inhibition [1] was 44.4%, the inhibition [2] was -1.2% and the inhibition [3] was greater than 94%. The inhibition [4] was -5.5%, the inhibition [5] was -1.9% and the inhibition [6] was 14.2%. For the same compound, the inhibition [7] was -0.7%.

Work on CCN1CCN(Cc2ccc(NC(=O)c3ccc(C)c(/C=C/c4cnc5[nH]ccc5c4OC)c3)cc2C(F)(F)F)CC1 yielded an inhibition [1] of 60.6%, an inhibition [2] of 0.1% and an inhibition [3] of 52.7%. The inhibition [4] was -9.6%, the inhibition [5] was 2.9% and the inhibition [6] was -9.4%. For the same compound, the inhibition [7] was 9.1%.

— ChEMBL document CHEMBL5696442, “Discovery of type II inhibitors of TGFβ-activated kinase 1 (TAK1) and mitogen-activated protein kinase kinase kinase kinase 2 (MAP4K2)” (J Med Chem, 2015)
